US20220324835A1 (Nurix Therapeutics, Inc., priority 2018, published 2022)

Assays:
Format in all cases: cell-based, human
[1] = tested on: T-cell; assay: CD25 cell surface staining on T-cells co-stimulated with anti-CD3 and anti-CD28 antibody (Biological Example 2); settings: Homo sapiens, T-cell, fold change over baseline, primary human total T-cells, read-out: CD25 staining Anti-CD3/Anti-CD28 stimulation; for fold induction at 0.3 µM: 0.3 μM Cbl-b inhibitor; for fold induction at 1 µM: 1 μM Cbl-b inhibitor; for fold induction at 4 µM: 4 μM Cbl-b inhibitor
Summary of the method: (§1)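 Values are fold-change over baseline: readings (IL-2 release, CD25 staining) from inhibitor-treated T-cells divided against untreated cells […]. No detailed procedure stated.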

[2] = tested on: T-cell; assay: CD25 cell surface staining on T-cells stimulated with anti-CD3 antibody alone (Biological Example 2); settings: T-cell, fold change over baseline, primary human total T-cells, read-out: CD25 staining Anti-CD3 stimulation; for fold induction at 1 µM: 1 μM Cbl-b inhibitor; for fold induction at 8 µM: 8 μM Cbl-b inhibitor
[3] = tested on: T-cell; assay: IL-2 secretion from T-cells co-stimulated with anti-CD3 and anti-CD28 antibody (Biological Example 2); settings: Homo sapiens, T-cell, fold change over baseline, primary human total T-cells, read-out: IL-2 secretion Anti-CD3/Anti-CD28 stimulation; for fold induction at 0.3 µM: 0.3 μM Cbl-b inhibitor; for fold induction at 1 µM: 1 μM Cbl-b inhibitor; for fold induction at 4 µM: 4 μM Cbl-b inhibitor
Summary of the method: as §1

Structure (SMILES): COc1cc(C(=O)Nc2cccc([C@H](C)Sc3nncn3C)c2)nc(C(F)(F)F)c1 [Compound 71, (S)-4-methoxy-N-(3-(1-((4-methyl-4H-1,2,4-triazol-3-yl)thio)ethyl)phenyl)-6-(trifluoromethyl)picolinamide]
- fold induction at 0.3 µM [1]: 1.01 to 1.3
- fold induction at 1 µM [1]: 1.51 to 1.75
- fold induction at 4 µM [1]: > 1.76
- fold induction at 1 µM [2]: 0.801 to 1
- fold induction at 8 µM [2]: 0.801 to 1
- fold induction at 0.3 µM [3]: 2.51 to 5
- fold induction at 1 µM [3]: 2.51 to 5
- fold induction at 4 µM [3]: 5 to 7.5

Structure (SMILES): C[C@H](Sc1nncn1C)c1cccc(NC(=O)c2ccnc(C(F)(F)F)n2)c1 [Compound 75, N-[3-[(1S)-1-[(4-methyl-1,2,4-triazol-3-yl)sulfanyl]ethyl]phenyl]-2-(trifluoromethyl)pyrimidine-4-carboxamide]
- fold induction at 0.3 µM [1]: 1.01 to 1.3
- fold induction at 1 µM [1]: 1.01 to 1.3
- fold induction at 4 µM [1]: 1.01 to 1.3
- fold induction at 1 µM [2]: 0.601 to 0.8
- fold induction at 8 µM [2]: 0.801 to 1
- fold induction at 0.3 µM [3]: 1.01 to 2.5
- fold induction at 1 µM [3]: 1.01 to 2.5
- fold induction at 4 µM [3]: 1.01 to 2.5

Structure (SMILES): C[C@H](Sc1nncn1C)c1cccc(NC(=O)c2cncc(C(F)(F)F)n2)c1 [Compound 77, N-[3-[(1S)-1-[(4-methyl-1,2,4-triazol-3-yl)sulfanyl]ethyl]phenyl]-6-(trifluoromethyl)pyrazine-2-carboxamide]
- fold induction at 0.3 µM [1]: < 1
- fold induction at 1 µM [1]: 1.01 to 1.3
- fold induction at 4 µM [1]: 1.01 to 1.3
- fold induction at 1 µM [2]: < 0.6
- fold induction at 8 µM [2]: 0.601 to 0.8
- fold induction at 0.3 µM [3]: < 1
- fold induction at 1 µM [3]: 1.01 to 2.5
- fold induction at 4 µM [3]: 1.01 to 2.5

Structure (SMILES): C[C@H](Sc1nncn1C)c1cccc(NC(=O)c2cc3c(Cl)cccc3[nH]2)c1 [Compound 78, 4-chloro-A-[3-[(LS)-1-[(4-methyl-1,2,4-triazol-3-yl)sulfanyl]ethyl]phenyl]-1H-indole-2-carboxamide]
- fold induction at 0.3 µM [1]: < 1
- fold induction at 1 µM [1]: 1.01 to 1.3
- fold induction at 4 µM [1]: 1.01 to 1.3
- fold induction at 1 µM [2]: 0.601 to 0.8
- fold induction at 8 µM [2]: 0.801 to 1
- fold induction at 0.3 µM [3]: 1.01 to 2.5
- fold induction at 1 µM [3]: 1.01 to 2.5
- fold induction at 4 µM [3]: 2.51 to 5

Structure (SMILES): C[C@H](Sc1nncn1C)c1cccc(NC(=O)c2cccc(S(C)(=O)=O)n2)c1 [Compound 80, (S)-N-(3-(1-((4-methyl-4H-1,2,4-triazol-3-yl)thio)ethyl)phenyl)-6-(methylsulfonyl)picolinamide]
- fold induction at 0.3 µM [1]: 1.01 to 1.3
- fold induction at 1 µM [1]: 1.01 to 1.3
- fold induction at 4 µM [1]: 1.01 to 1.3
- fold induction at 1 µM [2]: < 0.6
- fold induction at 8 µM [2]: < 0.6
- fold induction at 0.3 µM [3]: < 1
- fold induction at 1 µM [3]: 1.01 to 2.5
- fold induction at 4 µM [3]: 1.01 to 2.5

Structure (SMILES): C[C@H](Sc1nncn1C)c1cccc(NC(=O)c2cccc(C(C)(F)F)n2)c1 [Compound 81, (S)-6-(1,1-difluoroethyl)-N-(3-(1-((4-methyl-4H-1,2,4-triazol-3-yl)thio)ethyl)phenyl)picolinamide]
- fold induction at 0.3 µM [1]: 1.01 to 1.3
- fold induction at 1 µM [1]: 1.51 to 1.75
- fold induction at 4 µM [1]: > 1.76
- fold induction at 1 µM [2]: 0.801 to 1
- fold induction at 8 µM [2]: > 1
- fold induction at 0.3 µM [3]: < 1
- fold induction at 1 µM [3]: < 1
- fold induction at 4 µM [3]: 2.51 to 5

Structure (SMILES): C[C@H](Sc1nncn1C)c1cccc(NC(=O)c2cc(C(C)(C)O)cc(C(F)(F)F)n2)c1 [Compound 85, 4-(1-hydroxy-1-methyl-ethyl)-N-[3-[(1S)-1-[(4-methyl-1,2,4-triazol-3-yl)sulfanyl]ethyl]phenyl]-6-(trifluoromethyl)pyridine-2-carboxamide]
- fold induction at 0.3 µM [1]: 1.01 to 1.3
- fold induction at 1 µM [1]: 1.01 to 1.3
- fold induction at 4 µM [1]: 1.01 to 1.3
- fold induction at 1 µM [2]: 0.601 to 0.8
- fold induction at 8 µM [2]: > 1
- fold induction at 0.3 µM [3]: < 1
- fold induction at 1 µM [3]: < 1
- fold induction at 4 µM [3]: 1.01 to 2.5
